Data published in ChEMBL document CHEMBL2440076, “New triarylpyrazoles as broad-spectrum anticancer agents: design, synthesis, and biological evaluation” (Eur J Med Chem, 2013).

What was measured:
Type in all cases: functional
OVCAR-3 = experiment: Growth inhibition of human OVCAR3 cells assessed as cell growth at 3X10'-7 M after 48 hrs by sulforhodamine B assay; conditions: OVCAR-3, 48 h, read-out: Activity
SK-MEL-5 = experiment: Growth inhibition of human SK-MEL-5 cells assessed as cell growth at 3X10'-7 M after 48 hrs by sulforhodamine B assay; conditions: SK-MEL-5, 48 h, read-out: Activity
SK-MEL-2 = experiment: Growth inhibition of human SK-MEL-2 cells assessed as cell growth at 3X10'-7 M after 48 hrs by sulforhodamine B assay; conditions: SK-MEL-2, 48 h, read-out: Activity
SNB-19 = experiment: Growth inhibition of human SNB19 cells assessed as cell growth at 3X10'-7 M after 48 hrs by sulforhodamine B assay; conditions: SNB-19, 48 h, read-out: Activity
A549 = experiment: Growth inhibition of human A549/ATCC cells assessed as cell growth at 3X10'-7 M after 48 hrs by sulforhodamine B assay; conditions: A549, 48 h, read-out: Activity
MDA-MB-231 [1] = experiment: Growth inhibition of human MDA-MB-231 cells assessed as cell growth at 3X10'-8 M after 48 hrs by sulforhodamine B assay; conditions: MDA-MB-231, 48 h, read-out: Activity
UO-31 = experiment: Growth inhibition of human UO31 cells assessed as cell growth at 3X10'-8 M after 48 hrs by sulforhodamine B assay; conditions: UO-31, 48 h, read-out: Activity
SK-OV-3 = experiment: Growth inhibition of human SKOV3 cells assessed as cell growth at 3X10'-8 M after 48 hrs by sulforhodamine B assay; conditions: SK-OV-3, 48 h, read-out: Activity
BT-549 [2] = experiment: Growth inhibition of human BT549 cells assessed as cell growth at 3X10'-5 M after 48 hrs by sulforhodamine B assay; conditions: BT-549, 48 h, read-out: Activity
[3] = Growth inhibition of human Hs 578T cells assessed as cell growth at 3X10'-5 M after 48 hrs by sulforhodamine B assay; conditions: read-out: Activity
CCRF-CEM [4] = experiment: Growth inhibition of human CCRF-CEM cells assessed as cell growth at 3X10'-9 M after 48 hrs by sulforhodamine B assay; conditions: read-out: Activity
M14 = experiment: Growth inhibition of human M14 cells assessed as cell growth at 3X10'-8 M after 48 hrs by sulforhodamine B assay; conditions: M14, 48 h, read-out: Activity
Malme-3M = experiment: Growth inhibition of human MALME-3M cells assessed as cell growth at 3X10'-8 M after 48 hrs by sulforhodamine B assay; conditions: read-out: Activity
SNB-75 [5] = experiment: Growth inhibition of human SNB75 cells assessed as cell growth at 3X10'-8 M after 48 hrs by sulforhodamine B assay; conditions: SNB-75, 48 h, read-out: Activity
SF-268 [6] = experiment: Growth inhibition of human SF268 cells assessed as cell growth at 3X10'-8 M after 48 hrs by sulforhodamine B assay; conditions: SF-268, 48 h, read-out: Activity
[7] = Growth inhibition of human HCC2998 cells assessed as cell growth at 3X10'-8 M after 48 hrs by sulforhodamine B assay; conditions: HCC 2998, 48 h, read-out: Activity
NCI-H522 = experiment: Growth inhibition of human NCI-H522 cells assessed as cell growth at 3X10'-8 M after 48 hrs by sulforhodamine B assay; conditions: NCI-H522, 48 h, read-out: Activity
NCI-H23 = experiment: Growth inhibition of human NCI-H23 cells assessed as cell growth at 3X10'-8 M after 48 hrs by sulforhodamine B assay; conditions: NCI-H23, 48 h, read-out: Activity
MOLT-4 = experiment: Growth inhibition of human MOLT4 cells assessed as cell growth at 3X10'-8 M after 48 hrs by sulforhodamine B assay; conditions: MOLT-4, 48 h, read-out: Activity
CCRF-CEM [8] = experiment: Growth inhibition of human CCRF-CEM cells assessed as cell growth at 3X10'-8 M after 48 hrs by sulforhodamine B assay; conditions: read-out: Activity
BT-549 [9] = experiment: Growth inhibition of human BT549 cells assessed as cell growth at 3X10'-9 M after 48 hrs by sulforhodamine B assay; conditions: BT-549, 48 h, read-out: Activity
PC-3 = experiment: Growth inhibition of human PC3 cells assessed as cell growth at 3X10'-5 M after 48 hrs by sulforhodamine B assay; conditions: PC-3, 48 h, read-out: Activity
786-0 = experiment: Growth inhibition of human 786-0 cells assessed as cell growth at 3X10'-5 M after 48 hrs by sulforhodamine B assay; conditions: 786-0, 48 h, read-out: Activity
OVCAR-5 = experiment: Growth inhibition of human OVCAR5 cells assessed as cell growth at 3X10'-5 M after 48 hrs by sulforhodamine B assay; conditions: OVCAR-5, 48 h, read-out: Activity
MCF7 = experiment: Growth inhibition of human MCF7 cells assessed as cell growth at 3X10'-9 M after 48 hrs by sulforhodamine B assay; conditions: MCF7, 48 h, read-out: Activity
DU-145 [10] = experiment: Growth inhibition of human DU145 cells assessed as cell growth at 3X10'-9 M after 48 hrs by sulforhodamine B assay; conditions: DU-145, 48 h, read-out: Activity
SNB-75 [11] = experiment: Growth inhibition of human SNB75 cells assessed as cell growth at 3X10'-5 M after 48 hrs by sulforhodamine B assay; conditions: SNB-75, 48 h, read-out: Activity
NCI-H460 = experiment: Growth inhibition of human NCI-H460 cells assessed as cell growth at 3X10'-5 M after 48 hrs by sulforhodamine B assay; conditions: NCI-H460, 48 h, read-out: Activity
RPMI-8226 = experiment: Growth inhibition of human RPMI8226 cells assessed as cell growth at 3X10'-5 M after 48 hrs by sulforhodamine B assay; conditions: RPMI-8226, 48 h, read-out: Activity
SN12C = experiment: Growth inhibition of human SN12C cells assessed as cell growth at 3X10'-6 M after 48 hrs by sulforhodamine B assay; conditions: read-out: Activity
SF-268 [12] = experiment: Growth inhibition of human SF268 cells assessed as cell growth at 3X10'-9 M after 48 hrs by sulforhodamine B assay; conditions: SF-268, 48 h, read-out: Activity
LOX IMVI = experiment: Growth inhibition of human LOXIMVI cells assessed as cell growth at 3X10'-6 M after 48 hrs by sulforhodamine B assay; conditions: read-out: Activity
KM12 = experiment: Growth inhibition of human KM12 cells assessed as cell growth at 3X10'-6 M after 48 hrs by sulforhodamine B assay; conditions: KM12, 48 h, read-out: Activity
HT-29 = experiment: Growth inhibition of human HT-29 cells assessed as cell growth at 3X10'-6 M after 48 hrs by sulforhodamine B assay; conditions: HT-29, 48 h, read-out: Activity
T47D = experiment: Growth inhibition of human T47D cells assessed as cell growth at 3X10'-7 M after 48 hrs by sulforhodamine B assay; conditions: read-out: Activity
MDA-MB-231 [13] = experiment: Growth inhibition of human MDA-MB-231 cells assessed as cell growth at 3X10'-7 M after 48 hrs by sulforhodamine B assay; conditions: MDA-MB-231, 48 h, read-out: Activity
DU-145 [14] = experiment: Growth inhibition of human DU145 cells assessed as cell growth at 3X10'-7 M after 48 hrs by sulforhodamine B assay; conditions: DU-145, 48 h, read-out: Activity

Row | SMILES | growth at 0.3 µM (OVCAR-3) | growth at 0.3 µM (SK-MEL-5) | growth at 0.3 µM (SK-MEL-2) | growth at 0.3 µM (SNB-19) | growth at 0.3 µM (A549) | growth at 0.03 µM (MDA-MB-231 [1]) | growth at 0.03 µM (UO-31) | growth at 0.03 µM (SK-OV-3) | growth at 30 µM (BT-549 [2]) | growth at 30 µM [3] | growth at 0.003 µM (CCRF-CEM [4]) | growth at 0.03 µM (M14) | growth at 0.03 µM (Malme-3M) | growth at 0.03 µM (SNB-75 [5]) | growth at 0.03 µM (SF-268 [6]) | growth at 0.03 µM [7] | growth at 0.03 µM (NCI-H522) | growth at 0.03 µM (NCI-H23) | growth at 0.03 µM (MOLT-4) | growth at 0.03 µM (CCRF-CEM [8]) | other results
1 | COc1cc(-c2nn(-c3cccc(NC(=O)Nc4ccc(Cl)c(C(F)(F)F)c4)c3)cc2-c2ccncc2)ccc1Cl | 100% | 87% | 111% | 94% | 89% | 92% | 89% | 104% | -41% | -8% | 98% | 109% | 102% | 93% | 103% | 107% | 104% | 101% | 106% | 95% | growth at 0.003 µM (BT-549 [9]): 103%; growth at 30 µM (PC-3): -20%; growth at 30 µM (786-0): -43%; growth at 30 µM (OVCAR-5): -43%; growth at 0.003 µM (MCF7): 94%; growth at 0.003 µM (DU-145 [10]): 102%; growth at 30 µM (SNB-75 [11]): -24%; growth at 30 µM (NCI-H460): -28%; growth at 30 µM (RPMI-8226): -7%; growth at 3 µM (SN12C): 16%; growth at 0.003 µM (SF-268 [12]): 97%; growth at 3 µM (LOX IMVI): 13%; growth at 3 µM (KM12): 7%; growth at 3 µM (HT-29): 10%; growth at 0.3 µM (T47D): 95%; growth at 0.3 µM (MDA-MB-231 [13]): 85%; growth at 0.3 µM (DU-145 [14]): 103%
2 | COc1cc(-c2nn(-c3cccc(NC(=O)c4ccc(Cl)c(C(F)(F)F)c4)c3)cc2-c2ccncc2)ccc1Cl | 98% | 93% | 96% | 97% | 92% | 97% | 80% | 100% | 29% | 5% | 96% | 96% | 78% | 89% | 94% | 95% | 94% | 92% | 97% | 102% | growth at 0.003 µM (BT-549 [9]): 96%; growth at 30 µM (PC-3): 11%; growth at 30 µM (786-0): 32%; growth at 30 µM (OVCAR-5): 68%; growth at 0.003 µM (MCF7): 93%; growth at 0.003 µM (DU-145 [10]): 100%; growth at 30 µM (SNB-75 [11]): -2%; growth at 30 µM (NCI-H460): 7%; growth at 30 µM (RPMI-8226): 5%; growth at 3 µM (SN12C): 68%; growth at 0.003 µM (SF-268 [12]): 94%; growth at 3 µM (LOX IMVI): 39%; growth at 3 µM (KM12): 39%; growth at 3 µM (HT-29): 51%; growth at 0.3 µM (T47D): 92%; growth at 0.3 µM (MDA-MB-231 [13]): 81%; growth at 0.3 µM (DU-145 [14]): 98%
